Experimental data published in PubChem BioAssay (NCI).
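Assay format: 96-well plates, 48-hour exposure. TGI: concentration producing complete growth inhibition.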

Experiments:
Test in all cases: DTP human tumour cell line panel, 48 h
HOP-62 NSCLC = test system: HOP-62 NSCLC
TK-10 renal = test system: TK-10 renal
SF-268 CNS = test system: SF-268 CNS
HCC-2998 colon = test system: HCC-2998 colon
HCT-116 colon = test system: HCT-116 colon
A498 renal = test system: A498 renal
MCF7 breast = test system: MCF7 breast
MDA-MB-231 breast = test system: MDA-MB-231 breast
IGROV1 ovarian = test system: IGROV1 ovarian
NCI-H226 lung = test system: NCI-H226 lung

Structure (SMILES)	TGI (HOP-62 NSCLC) [µM]	TGI (TK-10 renal) [µM]	TGI (SF-268 CNS) [µM]	TGI (HCC-2998 colon) [µM]	TGI (HCT-116 colon) [µM]	TGI (A498 renal) [µM]	TGI (MCF7 breast) [µM]	TGI (MDA-MB-231 breast) [µM]	TGI (IGROV1 ovarian) [µM]	TGI (NCI-H226 lung) [µM]
O=C1c2ccccc2C(=O)N1n1c(Cc2ccc([N+](=O)[O-])cc2)n[nH]c1=O	> 100	> 100	> 100	> 100	> 100	> 100	> 100	> 100	> 100	> 100
NCCCN1c2ccccc2Sc2ccc(Cl)cc21	> 10	> 10	> 10	4.2	7.03	> 10	3.21	> 8.72	> 10	> 10
COC1=CC(=O)c2c(c(-c3nc(C)cs3)cn2C)C1=O	25.3	> 100	39.6	18	30.8	28.7	10.9	72.6	20.5	77.2
O=[N+]([O-])C(=C(Nc1cccc2cccnc12)Nc1cccc2cccnc12)C(Cl)=C(Cl)Cl	> 100	> 100	> 100	> 100	> 100	> 100	54.8	29.6	> 100	> 100
O=S(=O)(O)C(CO)c1ccccc1 (stereo not given) (tested in a mixture with another compound)	> 100	> 100	> 100	> 100	> 100	> 100	> 100	> 100	> 100	> 100
S=C1NC2=C(CSC/C2=C\c2cccc(Br)c2)C(c2cccc(Br)c2)N1 (stereo not given)	> 100	> 100	> 100	> 100	> 100	> 100	> 100	> 100	> 100	> 100
Cc1nc(C)c(N2CCN([N+](=O)[O-])CC2)c(=O)[nH]1	> 100	> 100	> 100	> 100	> 100	> 100	> 100	> 100	> 100	> 100
CCNC(=S)NNC(=O)C12CC3CC(CC(C3)C1)C2	> 100	> 100	> 100	> 100	> 100	> 100	> 100	> 100	> 100	> 100
COc1cc2c(cc1OC)C1C3CCCCC3CCN1CC2 (stereo not given)	> 100	> 100	> 100	> 100	> 100	> 100	> 100	> 100	> 100	> 100
CCCCCCCCCCCC[S+](C)C	1.52	18.3	20.2	16.8	20.8	28.1	24.5	10.1	6.16	15.4
COc1cc(O)c2c(c1)C(=O)c1cc3c(c(O)c1C2=O)C(OC1OC(C)C(OC)C(O)C1OC)C(OC)C(C)(O)C3=O (stereo not given)	44.2	23.7	36.3	17.4	14.6	21.7	17.1	27.3	6.5	9.54
CCOc1cc(/C=C2/C(C)=NN(c3cccc(Cl)c3)/C2=N/c2nc3ccccc3s2)ccc1O	> 100	> 100	86.1	35.6	67.5	56.9	81.8	59.6	> 100	68
CC(C)SC(=S)Sc1c(Cl)c(Cl)nc(Cl)c1Cl	18.4	18.4	32.9	12.7	22.4	31.5	15.7	26.7	20.1	50.3
COC(=O)/C=C\C(C#N)(C#N)N=Cc1ccc(C)cc1	34.2	3.65	9.33	35.3	3.57	31.8	3.68	30.1	26.3	21.5
O=C1c2cc(-c3ccccc3)cnc2S(=O)(=O)N1c1ccc(Br)cc1	32.2	> 100	> 100	39.5	> 100	> 100	> 100	> 100	> 100	> 100
N#CC(C#N)=C1SC(=Nc2ccccc2)C(=Nc2ccccc2)N1c1ccccc1	> 80.9	> 100	> 66.7	> 72	32.7	> 92.2	> 58.7	26.6	28.9	44.7
Cc1cc(/N=C/c2ccc(N(C)C)cc2)n(-c2ccccc2)n1	> 100	> 100	> 100	61.7	> 100	84.5	> 100	> 100	> 100	> 100
